# Data from patent publication US9597527B2, “Enhancement of penetration and action” (Merck Patent GmbH, priority 2010, dated 2017).
# Test: In vitro skin permeation, Franz-type diffusion cells, with light device irradiation
# Type: in vitro ADME, pig
# Conditions: Fucicort cream 4 mg/cm^2 on SC, p<0.005
# Procedure: Full Thickness skin is removed from the back of pig ears. The subcutaneous tissue is removed and the skin is mounted in open two-chamber Franz-type diffusion cells (diffusion area: 3.14 cm^−2; recipient volume: 10 ml). Temperature is kept at 32° C. at the skin surface. Recipient phase is a 0.05 M isotonic acetate buffer, pH 4.5, and 2-propanol (80:20%, vol/vol). The experiments are carried out under sink condition.
# The test formulation (4 mg/cm^2) is applied to the stratum corneum (SC) side of the skin. The treatment is reapplied at 3, 21, 27, 45, and 51 h, which simulates the actual dosage regimen in patients. At appropriate times (3, 21, 27, 45, 51, and 70 h) a specific amount of recipient phase is withdrawn and replaced by thermostated fluid. Samples are kept at 4° C. for a maximum of 2 days until high-performance liquid chromatography (HPLC) analysis. All permeation experiments are carried out in 6 replicates.
# The same experiment as described above is carried out.
# The same experiment as described above is carried out. Again, the skin is irradiated for 2 h after each application of the cream, but with the devices Dev4-6 of Example 4 in three separate runs, one run for each device. The devices are positioned directly above the SC. If the cream is applied or reapplied the light emitting device is repositioned on the SC 5 minutes afterwards. After having the skin irradiated for 1 h, the irradiation source is removed from the skin. Again samples of the recipient are taken and analyzed by HPLC in time intervals given above.
compound,measurement,setting,value
C[C@H]1C[C@H]2[C@@H]3CCC4=CC(=O)C=C[C@]4(C)[C@@]3(F)[C@@H](O)C[C@]2(C)[C@@]1(O)C(=O)CO [betamethasone],permeation enhanced as compared to the control experiment,"skin irradiated for 30 min with IR device Dev5, positioned 5 minutes after application",20%
same,permeation enhanced as compared to the control experiment,"skin irradiated for 2 h after each application with IR devices Dev4-6, one run each, all three devices",more than 27%
same,permeation enhanced as compared to the control experiment,"skin irradiated for 2 h after each application with device Dev1 (red OLED), recipient samples by HPLC",14%
